Test results published in PubChem BioAssay (NCI).
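Compound exposure: 48 hours, 5 concentrations, 96-well plates. The concentration for 50% growth inhibition is given as GI50. TGI is the concentration that stops growth completely.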

Legend:
Assay in all cases: NCI-60 cell line screen, 48 h
[1] = test system: IGROV1 ovarian
[2] = test system: SF-295 CNS
[3] = test system: TK-10 renal
[4] = test system: SK-OV-3 ovarian
[5] = test system: UO-31 renal
[6] = test system: A549 NSCLC
[7] = test system: M14 melanoma
[8] = test system: SW-620 colon
[9] = test system: UACC-257 melanoma
[10] = test system: DU-145 prostate

Row | Structure (SMILES) | TGI [1] | TGI [2] | TGI [3] | TGI [4] | TGI [5] | TGI [6] | TGI [7] | TGI [8] | TGI [9] | GI50 [1] | GI50 [10] | TGI [10] | GI50 [2] | GI50 [3] | GI50 [4] | GI50 [5] | GI50 [6] | GI50 [8] | GI50 [7] | GI50 [9]
1 | COc1cccc(C=O)c1C(=O)c1cc(O)ccc1O | > 62.5 µM | > 100 µM | > 56.7 µM | > 100 µM | 33.6 µM | > 100 µM | 35 µM | 33.2 µM | 46.3 µM |  |  |  |  |  |  |  |  |  |  | 
2 | COC(=O)C1CSC(c2csc(CCN)n2)=N1 (centres undefined) | > 100 µM | > 100 µM | > 100 µM | > 100 µM | > 100 µM | > 100 µM | > 100 µM | > 100 µM | > 100 µM |  |  |  |  |  |  |  |  |  |  | 
3 | O=C1/C(=C/c2ccc([N+](=O)[O-])s2)Oc2cc(Cl)ccc21 | 3.61 µM | > 100 µM | > 21.1 µM | > 100 µM | 1.22 µM | > 100 µM |  | 0.524 µM |  | 0.941 µM | 3.81 µM | > 100 µM | 4.46 µM | 8.27 µM | 23.5 µM | 0.317 µM | 2.67 µM | 0.217 µM |  | 
4 | OCC1OC2c3ccccc3COC2C1OCc1ccccc1 (centres undefined) | > 100 µM | > 100 µM | > 100 µM | > 100 µM | > 100 µM | > 100 µM | > 100 µM | > 100 µM | > 100 µM |  |  |  |  |  |  |  |  |  |  | 
5 | O=C(NC(=Nc1ccccc1)SCSC(=Nc1ccccc1)NC(=O)c1ccco1)c1ccco1 | > 100 µM | 78.4 µM | 70.4 µM |  | > 100 µM | > 100 µM | > 100 µM | > 100 µM | > 100 µM |  |  |  |  |  |  |  |  |  |  | 
6 | COC(=O)[C@H]1COC(=S)N1C(=O)[C@@H](C)[C@H](O)C(C)C | > 100 µM | > 100 µM | > 100 µM | > 100 µM | > 100 µM | > 100 µM | > 100 µM | > 100 µM | > 100 µM |  |  |  |  |  |  |  |  |  |  | 
7 | COC(=O)C12CCC(C)(C)CC1C1=CCC3C4(C)CC(O)C(O)C(C)(C(=O)OC)C4CCC3(C)C1(CO)CC2 (centres undefined) | 35.2 µM | 28.8 µM | 33.7 µM | 31.3 µM |  | 29 µM | 19.5 µM | 27.5 µM | 31.7 µM |  |  | 29.1 µM |  |  |  |  |  |  |  | 
8 | C/C(CCn1[nH]c(=O)ccc1=O)=N\NC(=O)C(N)=O | > 100 µM | > 100 µM | > 100 µM |  | > 100 µM | > 100 µM | > 100 µM | > 100 µM | > 100 µM |  |  |  |  |  |  |  |  |  |  | 
9 | Nc1nc(N)c(CCCCc2ccccc2)c(C=O)n1 | 38.1 µM | 64.7 µM | 93 µM | 95.5 µM | 45.4 µM | > 100 µM | 44.1 µM | 30.9 µM | 33.3 µM |  |  |  |  |  |  |  |  |  |  | 
10 | CC1(C)NC(=O)N(CCCCCCN2C(=O)NC(C)(C)C2=O)C1=O | > 100 µM |  | > 100 µM | > 100 µM | > 100 µM | > 100 µM | > 100 µM | > 100 µM | > 100 µM |  |  |  |  |  |  |  |  |  |  | 
11 | C/C(=N\NC(=S)N1CCN(c2ccccn2)CC1)c1ccccn1 | 15 µM | 12.4 µM | 13.9 µM | 16.2 µM | 6.8 µM | 13.7 µM | 8.06 µM | 16.2 µM |  |  |  | 14.1 µM | 0.0129 µM |  | 0.198 µM | 0.141 µM | 0.0464 µM |  | 0.0852 µM | 
12 | COC(=O)Cc1c([C@@]2(C)CCCC(C)(C)C2)ccc2c1C(=O)OC2 | 47.5 µM | 26.1 µM | 59.3 µM | 32.3 µM | 15.3 µM | 32.4 µM | 26.1 µM | > 100 µM | 22.8 µM |  |  |  |  |  |  |  |  |  |  | 
13 | CN(C)C1CCN(Cc2ccc(NC(=O)c3cncc(C#Cc4cnc(N)c5ncccc45)c3)cc2C(F)(F)F)CC1 | 19.9 µM | 17.3 µM | 19.5 µM |  | 1.78 µM | 19.2 µM | 1.87 µM | 4.03 µM | 3.97 µM | 9.48 µM | 0.904 µM | 1.72 µM | 8.88 µM | 9.69 µM |  | 0.999 µM | 8.25 µM | 1.32 µM | 0.962 µM | 1.43 µM
14 | Cc1ccc([P+](Cc2ccccc2)(c2ccccc2)c2ccccc2)cc1 | 19 µM | 7.69 µM |  | > 100 µM | 67.7 µM | 64.8 µM | 16.4 µM | 49.6 µM | 4.8 µM | 1.92 µM | 3.62 µM | > 100 µM | 2.36 µM |  | 4.1 µM | 10.3 µM | 3.08 µM | 2.66 µM | 2.78 µM | 0.98 µM
15 | O=Cc1cccc2ccc3ccccc3c12 |  | 50.2 µM | 40.2 µM | 46.5 µM | > 100 µM | 85.3 µM | 49.4 µM | 74.3 µM | > 100 µM |  |  | > 100 µM |  |  |  |  |  |  |  | 
16 | Oc1c(C(Nc2ccccn2)c2cccc(Oc3ccccc3)c2)ccc2cccnc12 (centres undefined) | 21.5 µM | 13.3 µM | 14.5 µM | 15.6 µM | 3.11 µM | 20 µM |  | 20.7 µM | 15 µM | 0.538 µM | 0.774 µM | 16.2 µM | 0.392 µM | 0.672 µM | 0.836 µM | 0.382 µM | 0.544 µM | 0.422 µM |  | 1.32 µM
17 | COC(=O)c1cc(NC(=O)c2cc(NC(=O)c3cc([N+](=O)[O-])n(C)c3)cn2C)cn1C | > 100 µM | > 100 µM | > 100 µM | > 100 µM | > 100 µM | > 100 µM | > 100 µM | > 100 µM | > 100 µM | > 100 µM |  |  | 32.8 µM | 46.7 µM | 45.3 µM | > 100 µM | 64.1 µM | > 100 µM | 15.2 µM | > 100 µM
18 | O=[N+]([O-])c1cc(-c2nc(=S)[nH][nH]2)ccc1O | > 100 µM | > 100 µM | > 100 µM | > 100 µM | > 100 µM | > 100 µM | > 100 µM | 18.4 µM | > 100 µM |  |  |  |  |  |  |  |  |  |  | 
19 | COc1ccc2c(c1)[n+]([O-])c(-c1cccc(Cl)c1)c(N)[n+]2[O-] | > 100 µM | > 100 µM |  | > 100 µM | > 100 µM | > 100 µM |  | > 100 µM | 64.7 µM |  |  |  |  |  |  |  |  |  |  | 
